Experimental findings from BindingDB's records for patent US20240335427 (Dana-Farber Cancer Institute, 2024) are described below.

A word on the IC50: it is the concentration needed to halve the response being measured. A lower IC50 goes with greater potency.

The assay has as its target Josephin-1 (Homo sapiens, UniProt Q15040). The source says:
Human JOSD1 protein was purified according to standard protocols.

In turn, `N#CN1CC[C@@H](C(=O)Nc2nc3ccc(-c4ccc5[nH]ncc5c4)cc3s2)C1` [US20240335427, Compound 7] gave an IC50 of 95 nM.
